# Earlier results, collected in US11162142B2, “BCR-ABL1 splice variants and uses thereof” (Quest Diagnostics Investments Incorporated, priority 2010, dated 2021).
# Counter-ions that a name gives are not always drawn. Like-named read-outs stand apart in the source and are kept apart here.
# Experiments:
# CML = settings: all stages of CML
compound,measurement,setting,value
"Cc1ccc(NC(=O)c2ccc(CN3CCN(C)CC3)cc2)cc1Nc1nccc(-c2cccnc2)n1 [imatinib, imatinib mesylate]",Effectiveness of monotherapy,CML,effective for all stages of CML
same,Primary resistance (failure to achieve any hematologic response) rate,patients with CML; accelerated-phase CML,9%
same,Secondary resistance (hematologic recurrence) rate,patients with CML; accelerated-phase CML,32%
same,Primary resistance (failure to achieve any hematologic response) rate,patients with CML; blast-phase CML,51%
same,Secondary resistance (hematologic recurrence) rate,patients with CML; blast-phase CML,41%
same,Primary resistance (failure to achieve any hematologic response) rate,patients with CML; chronic-phase CML,3%
same,Secondary resistance (hematologic recurrence) rate,patients with CML; chronic-phase CML,22%
